The results in this text go back to patent publication US7705021B2, “Isoindolone compounds, compositions containing the same, and methods of use thereof for the treatment of viral infections related to the etiology of cancer” (Fox Chase Cancer Center, priority 2005, dated 2010).

Assay [1] deals with HLR (HeLa Luciferase Reporter)-Elk-1 cells. The assay can be described thus: MAPK signaling reporter assay (Elk-1 luciferase, EGF-stimulated). The assay is classed as cell-based. The settings on record: Homo sapiens, 5 h, HLR-Elk-1 cells, EGF 10 ng/ml stimulation, luciferase after five hours. Here is the method: The present example describes assays for assessing MAPK pathway signaling modulation mediated by the compounds and compositions described herein. Specifically, compounds of the invention have been assessed in an ELK-1 luciferase reporter assay in HeLa cells to obtain an IC50 measurement as well as to assess their anti-proliferative capacity. Following 72 hours of serum starvation, HLR (HeLa Luciferase Reporter)-Elk-1 cells (30,000 cells per well) were incubated for one hour in the presence or absence of various concentration of inhibitors prior to stimulation of Elk1 release by EGF addition (10 ng/ml). The amount of Elk1 release was measured after five hours using Bright-Glo Luciferase assay (Promega Co., Madison, Wis.).
In general terms: In a reporter assay the amount or activity of a reporter protein is the signal.

Assay [2] concerns HCT-116 cells. The assay can be described thus: Proliferation assay (WST-1). The class given is cell-based. The settings on record: Homo sapiens, HCT-116, 48 hours. How it is done: Five thousand HCT-116 cells were seeded into each well of a 96 well flat bottom plate and incubated over night at 37° C. in 5% CO2. The growth of plated cells was measured by adding […] WST-1 reagent (Roche Applied Sciences, Germany) to three control wells and measuring OD650 and OD450 absorbances with a SpectraMax250 plate reader. If the OD650-OD450 values were above 0.5, the remainder of the plate was used for incubation with compounds or solvent control for 48 hours. After this incubation, WST-1 reagent was added to the wells and OD650-OD450 values were calculated as before. Triplicate wells were assayed for each condition and standard deviation was determined; all experiments were performed at least three times independently.

The term IC50 denotes the point on the concentration scale where inhibition reaches its midpoint. A higher IC50 goes with lower potency. As a reminder, the GI50 is the concentration that inhibits growth by half. A lower GI50 goes with more potent growth inhibition. Regarding `COc1cc(C2(OC)c3ccccc3C(=O)N2CCc2ccccn2)ccc1OCc1ccccc1` (stereo not drawn) [Compound 7, 3-(4-Benzyloxy-3-methoxy-phenyl)-3-methoxy-2-(2-pyridin-2-yl-ethyl)-2,3-dihydro-isoindol-1-one], 22.2 ± 6.8 µM corresponded to half-maximal inhibition in assay [1] (IC50). Also, halving of growth in assay [2] (GI50) required 22.2 ± 5.3 µM.
Broadly, the inhibition is how much of the control response was suppressed. Regarding `COc1cc(C2c3ccccc3C(=O)N2CCc2ccccn2)ccc1OCc1ccccc1` (stereo not drawn) [Compound 8, 3-(4-Benzyloxy-3-methoxy-phenyl)-2-(2-pyridin-2-yl-ethyl)-2,3-dihydro-isoindol-1-one], the IC50 in assay [1] stood at 31.8 ± 6.1 µM. The inhibition at 60 µM in assay [2] came to 21%.
In assay [1], `COc1cc(CN2C(=O)c3ccccc3C2Cc2ccccn2)ccc1OCc1ccccc1` (stereo not drawn) [Compound 11, 2-(4-benzyloxy-3-methoxy-benzyl)-3-(2-pyridin-2-yl-methyl)-2,3-dihydro-isoindol-1-one] showed an IC50 of 43 ± 6.9 µM. Moreover, the inhibition at 60 µM in assay [2] was 26%.
